“Also recorded” adds a separate entry of the source.
Tests used:
A375 cells [1] = experiment: Matrigel invasion assay, A375; assay type: cell-based
Procedure: (§1) Matrigel (BD Biolabs) was diluted in 0.01 M Tris-HCL/0.7% NaCl, filter-sterilized and 0.1 ml was used to cover the membrane in BD BioCoat cell inserts (#353097, […], 24 well format, membrane growth area=0.33 cm^2). Cells 25,000/well were plated in […] of growth media containing 1% FCS atop the Matrigel. Growth media containing 10% FCS was added to the lower well and cells were incubated overnight at 37 C. The following day, excess cells from the top side of the membrane were removed with a cotton swab, and the membrane was rinsed in phosphate-buffered saline, fixed with 4% paraformaldehyde for 10 minutes, washed and stained in […] DAPI for 10 minutes to visualize the cells. The underside of the membrane was photographed with an inverted fluorescent microscope to count the number of cells that had migrated through the Matrigel layer (38).

[2] = tested on: PLX4032-resistant SK-MEL-5, SK-MEL-28 and WM3248 cells; experiment: Spheroid formation, other PLX4032-resistant melanoma lines; assay type: cell-based; conditions: PLX4032-resistant SK-MEL-5, SK-MEL-28, WM3248; FIGS. 5B, 5E
Procedure: (§2) Cancer cells were maintained under attached conditions in growth media containing DMEM (Invitrogen, Frederick, Md.) supplemented with 4.5 mg/ml D-glucose, […] L-glutamine, 100 mg/ml sodium pyruvate, and 5% fetal calf serum. For spheroid culture, monolayer cultures were dissociated with 0.25% trypsin and the cells were collected by centrifugation, and resuspended in spheroid media, consisting of DMEM/F12 (1:1) (DMT-10-090-CV, Mediatech INC, Manassa, Va.) containing 2% B27 serum-free supplement (17504-044, Invitrogen, Frederick, Md.) 20 ng/ml EGF (E4269, Sigma, St. Louis), 0.4% bovine serum albumin (B4287, Sigma) and […] insulin (19278 Sigma, St. Louis, Mo.) and plated at 40,000 cells per 9.6 cm^2 well in six well ultra-low attachment Costar cluster dishes (4371, Corning, Tewksbury, Mass.). Parallel cultures were plated in spheroid media on conventional plastic dishes for growth as monolayer cultures.
(§3) A375, SK-MEL-5 and SK-MEL-28 cell lines were maintained in DMEM growth medium containing 10% FCS, 2 mM L-glutamine and 1 mM sodium pyruvate. […]
(§4) The impact of verteporfin on additional PLX4032 resistant melanoma cancer cell lines was examined. […] To determine whether YAP1 and TAZ can antagonize PLX4032 action, constitutively active YAP1 and TAZ were expressed in wild-type SK-MEL-28 cells and the impact on cell proliferation was monitored.

[3] = tested on: A375-PLX-R spheroid cell-derived tumors; experiment: Tumor xenograft assay, A375-PLX-R spheroid cell-derived tumors; assay type: in vivo, NSG mice
Procedure: (§5) Cells were grown for ten days as spheroids and a single cell suspension, prepared by trypsin digestion, was resuspended in phosphate buffered saline containing 30% Matrigel and 100 μl containing 0.1 million cells were injected subcutaneously at the two front flanks of NOD/scid/IL2 receptor gamma-knockout mice (NSG mice) using a 26.5 gauge needle. PLX4032 was dissolved in phosphate-buffered saline containing 10% DMSO and delivered at 20 mg/kg by oral gavage in […] three times per week (M/W/F). Verteporfin was dissolved in phosphate-buffered saline containing 10% DMSO and 0-100 mg/kg was delivered by intraperitoneal injection of […] three times per week (M/W/F). Five mice were used per group (two tumors per mouse) and treatment was initiated two days after tumor cell injection. Tumor growth was monitored by measuring tumor diameter and calculating tumor volume using the formula, volume=4/3π×(diameter/2)^3. Mice were euthanized by injection of 250 μl of a 2.5% stock of Avertin per mouse followed by cervical dislocation of the neck. Tumor samples were harvested to prepare extract for immunoblot and sections for immunostaining. These experiments were reviewed and approved by the University of Maryland-Baltimore Institutional Animal Care and Use Committee. The plotted values are mean±SEM and significance were determined using the students t-test.

A375-PLX-R cells [4] = experiment: Matrigel invasion assay, A375-PLX-R; assay type: cell-based; parameters: suppression of matrigel invasion at higher verteporfin concentrations: dose or concentration left out as unconfirmed
Procedure: as §1
(§6) A375, SK-MEL-5 and SK-MEL-28 cell lines were maintained in DMEM growth medium containing 10% FCS, 2 mM L-glutamine and 1 mM sodium pyruvate. The WM3248 cells were maintained in MCDB153:L15 (4:1) growth medium containing 2% FCS, […] insulin and 1.68 mM CaCl2. To create PLX4032-resistant cells, A375, SK-MEL-5, SK-MEL-28 and WM3248 cells were treated with […] in monolayer culture in growth medium for several weeks. The surviving cells were then expanded and cultured in increasing doses of PLX4032 up to […]. The resulting PLX4032-resistant cells, designated PLX4032-resistant (e.g., A375-PLX-R) were routinely maintained in the presence of […] PLX4032.

tumor-derived cells = experiment: Matrigel invasion of cells from verteporfin-treated tumors; assay type: cell-based; conditions: FIG. 6H
Procedure: Tumors were initiated and treated with PLX4032 or verteporfin as above. At 4 weeks, the tumors were removed, mechanically dissociated and dispersed as single cell suspensions with 0.25% trypsin for 10 min and plated as monolayer cultures. After 24 h, the cells were harvested and seeded at 25,000 cells/well atop a 0.1 ml matrigel layer in Millicell (1 cm diameter, […]) chambers in the presence of a serum gradient (38). After 18 h, the membranes were stained with DAPI and the nuclei of migrated cells were visualized by inverted fluorescence microscopy (38).

[5] = tested on: PLX4032-resistant SK-MEL-5, SK-MEL-28 and WM3248 cells; experiment: Matrigel invasion, other PLX4032-resistant melanoma lines; assay type: cell-based; conditions: PLX4032-resistant SK-MEL-5, SK-MEL-28, WM3248; FIGS. 5C, 5F
Procedure: as §1, §3, §4

A375 cells [6] = experiment: Spheroid formation assay, A375; assay type: cell-based
Procedure: as §2

A375-PLX-R cells [7] = experiment: Spheroid formation assay, A375-PLX-R; assay type: cell-based
Procedure: as §2, §6

A375-PLX-R cells [8] = experiment: Cell proliferation, PLX4032-resistant A375-PLX-R cells; assay type: cell-based; conditions: FIG. 1A
Procedure: as §6

[9] = tested on: A375 spheroid cell-derived tumors; experiment: Tumor xenograft assay, A375 spheroid cell-derived tumors; assay type: in vivo, NSG mice
Procedure: as §5

verteporfin
suppression of matrigel invasion at higher verteporfin concentrations (A375 cells [1]; A375 (FIG. 4D), above 0.5-1 mM): nearly complete | IC50 (A375 cells [1]; A375, FIG. 4D legend, read-out: verteporfin concentration giving 50% suppression of matrigel invasion): 500 to 1000 nM | spheroid formation [2]: reduced | YAP1, YAP1-P, TAZ and TEAD levels in tumors ([3]; 10 mg/kg verteporfin/20 mg/kg PLX4032-treated tumors, FIG. 7C): reduction | tumor size ([3]; verteporfin 0-100 mg/kg intraperitoneal three times per week, FIGS. 7A-7B): dose-dependent reduction | tumor formation ([3]; verteporfin 10 mg/kg alone): does not suppress | PLX4032-dependent suppression of tumor formation ([3]; verteporfin 10 mg/kg with PLX4032 20 mg/kg): restores | suppression of matrigel invasion at higher verteporfin concentrations (A375-PLX-R cells [4]; A375-PLX-R (FIG. 4E)): nearly complete | IC50 (A375-PLX-R cells [4]; A375-PLX-R, FIG. 4E legend, read-out: verteporfin concentration giving 50% suppression of matrigel invasion): 500 to 1000 nM | matrigel invasion of tumor-derived cells after in vivo treatment (tumor-derived cells): reduced | matrigel invasion [5]: reduced | IC50 (A375 cells [6]; A375, FIG. 4A legend, read-out: verteporfin concentration suppressing spheroid formation by 50%): 100 to 250 nM | spheroid formation at higher verteporfin concentrations (A375 cells [6]; A375, above 0.1-0.25 mM): nearly completely inhibited | IC50 (A375-PLX-R cells [7]; A375-PLX-R, FIG. 4B legend, read-out: verteporfin concentration suppressing spheroid formation by 50%): 100 to 250 nM | spheroid formation at higher verteporfin concentrations (A375-PLX-R cells [7]; A375-PLX-R, above 0.1-0.25 mM): nearly completely inhibited | PLX4032 suppression of spheroid number on verteporfin co-treatment (A375-PLX-R cells [7]; co-treatment 0.1 μM verteporfin with 0-1 μM PLX4032, FIG. 5A legend): restores | PLX4032 suppression of spheroid number on verteporfin co-treatment (A375-PLX-R cells [7]; co-treatment 0.1 mM verteporfin with 0-1 mM PLX4032, FIG. 5A): restored

CCCS(=O)(=O)Nc1ccc(F)c(C(=O)c2c[nH]c3ncc(-c4ccc(Cl)cc4)cc23)c1F [PLX4032]
matrigel invasion (A375 cells [1]; A375, PLX4032 treatment): not suppressed; also recorded: did not impact | spheroid formation [2]: did not reduce | ERK1/2-P level in tumors ([3]; PLX4032 20 mg/kg in the presence of verteporfin): reduced | tumor growth / tumor formation ([3]; PLX4032 20 mg/kg oral gavage three times per week, absence of verteporfin, 20 mg/kg): did not suppress | matrigel invasion (A375-PLX-R cells [4]; A375-PLX-R, PLX4032 treatment): not suppressed; also recorded: did not impact | matrigel invasion [5]: did not reduce | spheroid formation (A375 cells [6]; A375 cells, FIGS. 2A-2B): suppressed | proliferation of A375-PLX-R cells (A375-PLX-R cells [8]): not suppressed | A375-PLX-R spheroid formation (A375-PLX-R cells [7]; 0-1 μM PLX4032, no verteporfin, FIG. 5A legend): does not suppress | A375-PLX-R spheroid formation (A375-PLX-R cells [7]; 0-1 mM PLX4032, no verteporfin, FIG. 5A): did not suppress | spheroid formation (A375-PLX-R cells [7]; A375-PLX-R cells, FIGS. 2A-2B): not | tumor growth ([9]; PLX4032 20 mg/kg oral gavage three times per week, FIG. 6B): suppressed | p21Cip1 level in tumors ([9]; PLX4032-treated A375 tumors, FIG. 6C): slightly elevated

Source: US11246856B2, “Methods of treating resistant cancers” (University of Maryland, Baltimore, priority 2017, dated 2022)
